Consider 2 compounds from patent US20110160053A1, “Synergistic Combination of Prothioconazole and Metominostrobin” (Bayer CropScience AG, priority 2009, published 2011).

Holding throughout (format): in vivo
The test system of experiment [1] is Sphaerotheca fuliginea. Briefly: Sphaerotheca test (cucumbers) / protective. Conditions: rate of application 2 ppm, evaluated 7 days after inoculation. How it is done:
[table] To produce a suitable preparation of active compound, 1 part by weight of active compound is mixed with the stated amounts of solvent and emulsifier, and the concentrate is diluted with water to the desired concentration. To test for protect activity, young plants are sprayed with the preparation of active compound at the stated rate of application. After the spray coating has dried on, the plants are inoculated with an aqueous spore suspension of Sphaerotheca fuliginea. The plants are then placed in a greenhouse at approximately 23° C. and a relative atmospheric humidity of approximately 70%. The test is evaluated 7 days after the inoculation. 0% means an efficacy which corresponds to that of the control, while an efficacy of 100% means that no disease is observed.

Experiment [2] relates to Blumeria graminis fsp. tritici. Kind of experiment: Blumeria test (wheat) / preventive. As to conditions: rate of application 62.5 ppm, evaluated 7 days after inoculation. How it is done:
[table] To produce a suitable preparation of active compound, 1 part by weight of active compound or active compound combination is mixed with the stated amounts of solvent and emulsifier, and the concentrate is diluted with water to the desired concentration. To test for preventive activity, young plants are sprayed with the preparation of active compound or active compound combination at the stated rate of application. After the spray coating has been dried, the plants are dusted with spores of Blumeria graminis fsp. tritici. The plants are placed in the greenhouse at a temperature of approximately 18° C. and a relative atmospheric humidity of approximately 80% to promote the development of mildew pustules. The test is evaluated 7 days after the inoculation. 0% means an efficacy which corresponds to that of the control, while an efficacy of 100% means that no disease is observed.

Experiment [3] has as its system Phakopsora pachyrhizi. Kind of experiment: Phakopsora test (soybeans) / protective. As to conditions: evaluated 11 days after inoculation. The protocol:
To produce a suitable preparation of active compound, 1 part by weight of active compound or active compound combination is mixed with the stated amounts of solvent and emulsifier, and the concentrate is diluted with water to the desired concentration.
To test for protective activity, young plants are sprayed with the preparation of active compound or active compound combination at the stated rate of application. After the spray coating has dried on, the plants are placed in a greenhouse at a temperature of approximately 23° C. and a relative atmospheric humidity of approximately 70%.
1 day after spraying, the plants are inoculated with an aqueous spore suspension of the causal agent of soybean rust (Phakopsora pachyrhizi). The plants are then placed in a greenhouse at approximately 20° C. and a relative atmospheric humidity of approximately 80%. The test is evaluated 11 days after the inoculation. 0% means an efficacy which corresponds to that of the control, while an efficacy of 100% means that no disease is observed.

Take `CNC(=O)/C(=N/OC)c1ccccc1Oc1ccccc1` [Metominostrobin, (E)-α-(methoxyimino)-N-methyl-2-phenoxy-benzeneacetamide]: the Efficacy in % in experiment [1] was determined as 0%; in experiment [2] it was 50%; in experiment [3] (rate of application 2.5 ppm), 0%; in experiment [3] (rate of application 5 ppm), 20%.
For the compound `OC(Cc1ccccc1Cl)(Cn1nc[nH]c1=S)C1(Cl)CC1` (centres unmarked) [Prothioconazole, 2-[2-(1-chlorocyclopropyl)-3-(2-chlorophenyl)-2-hydroxypropyl]-2,4-dihydro-[1,2,4]-triazole-3-thione], the Efficacy in % in experiment [1] is 65%; in experiment [2], 13%; in experiment [3] (rate of application 0.1 ppm) it was 20%; in experiment [3] (rate of application 0.5 ppm) it was 50%.
